Laboratory results reported in patent publication US20100087534A1, “Use of a Photosensitizing Agent in the Treatment or Prevention of an Inflammation-Associated Disorder in the Gastrointestinal Tract of a Mammal” (priority 2005, published 2010).

How the values were obtained:
Type in all cases: in vivo
[1] = system: SCID mice with colitis induced by transfer of CD4+CD45RBhigh T-cells; test: PDT in CD4+CD45RBhigh transfer colitis, clinical and endoscopic follow-up (Example 1)
Procedure: b) A rigid mini-endoscope Hopkins I (vision direct 0°, length 10 cm, diameter 1.9 mm, Anklin, Binningen, Switzerland) with a 9 Charrière (Ch) tube and a channel for instrumentation (Flexible biopsy forceps Ch 3, 53 cm length) coupled on the Coloview Basic equipment (light source Xenon 175 and Endovision Telecam SLB; Storz Inc, Tuttlingen, Germany) and the home made air inflation system (see above). […] First the colonoscopy technique was optimised in 10 wild type BALB/c mice and 10 SCID mice, which were colonoscoped repeatedly (3 times within a 2 weeks time period). Afterwards the accuracy of colonoscopy in diagnosis colitis was evaluated in BALB/c mice with sodium dextran sulfate (DSS) induced colitis and in SCID mice with colitis induced by transfer of a subpopulation of CD4+CD45RBhigh T-cells. For this purpose the mice were colonoscoped at diverse time points after onset of DSS administration or T-cell transfer and the endosocpic image was compared with the endoscopic image of normal mice and the histology after sacrificing the mice.
To induce CD4+ CD45RBhigh transfer colitis, T cells used for the adoptive transfer of the SCID mice were obtained from the spleens of six weeks old wild type BALB/c mice that were housed under specific pathogen-free (SPF) conditions at our animal care facility. Mice were sacrificed by cervical dislocation under anesthesia and spleen were recovered and kept in cold RPMI 1640 medium complemented with a final concentration of 2% fetal calf serum (FCS) until processing. The tissue was forced through 70 μm and 40 μm nylon meshes and washed. Spleen cells were then centrifugated and the pellet was resuspended in 5 ml of cold medium for counting. The cellular preparation was then enriched in CD4+ cells by magnetic cell sorting using CD4 (L3T4) MACS microbeads (Miltenyi Biotec, Gladbach, Germany). The enriched cells were then stained using fluorescein isothiocynate (FITC)-conjugated anti-CD4 and phyoerythrin (PE)—conjugated anti-CD45RB monoclonal antibodies (BD, Biosciences Pharmingen, San Diego, USA). CD4+CD45RB high cells were sorted by FACS, resuspended in PBS at the concentration of 10^6 cells/ml and finally 10^5 cells were injected intravenously under sterile conditions into 4-6 weeks old SCID mice.
Colonoscopy could safely be performed in normal BALB/c mice and SCID mice. The mouse colon could be intubated up to the right flexure. The length of the accessible mouse colon was approximately 4 cm with the rectum comprised. In DSS induced colitis a correlation between colitis and weight loss was observed, whereas in SCID mice with colitis after CD4+CD45RB^high T-cell transfer, endoscopic signs of colitis developed earlier as weight loss and the correlation between endoscopic signs of colitis and weight loss was less good. The colitis in DSS mice was segmental, the rectum was always spared, erythema, ulcerations, changes of the normal vascular pattern could be observed. […] Furthermore, since the length of the accessible mouse colon was only about 4 cm, they changed their scoring system concerning the length.

IFN-γ = IFN-γ expression index in colon of transfer colitis SCID mice (FIG. 2)
Procedure: (§1) FIG. 2 represents the expression indices of the proinflammatory markers IFN-γ and TNF-α in untransfered mice, disease control group and PDT group (15 mg/kg of δ-ALA, 10 J/cm^2).
(§2) Typically, the expression index of each pro-inflammatory marker of interest is calculated (normalized number of mRNA copies of each manipulated mice/normalized number of mRNA copies of the unmanipulated mice). The results are given as mean values of the expression index (unmanipulated mean mice index=1). […]
(§3) The third portion was used for measuring the expression of the molecules involved in immune and inflammatory phenomenons in the colonic mucosa (cytokines, chemokines). […] Quantification of reverse transcripted messenger RNA for GAPDH, the inducible nitric oxide synthetase (iNOS), interferon-gamma (IFN-γ), interleukin-1 receptor antagonist (IL1-Ra), tumor necrosis factor alpha (TNF-α), interleukin 6 (IL-6), tumor growth factor beta (TGF-13) and interleukin10 (IL-10) was performed by quantitative real-time PCR in a BioRad Real-time PCR iCycler using specific pairs of primers and the green fluorescence dye SYBR—Green®. GAPDH was used to normalize quantifications within each individual sample (normalization of the number of mRNA copies for the gene of interest/1 million mRNA copies of the GAPDH gene of the investigated mouse). […]

TNF-α = TNF-α expression index in colon of transfer colitis SCID mice (FIG. 2)
Procedure: as §1, §2, §3

[2] = of the 4 mice which developed signs of severe disease
[3] = 15 mg/kg δ-ALA, 10 J/cm^2, versus disease control group (FIG. 2)
[4] = 10 J/cm^2, 15 mg/kg δ-ALA, compared to "colonoscopy" mice, deduced from FIG. 2

Compound: NCC(=O)CCC(=O)O [δ-ALA, 5-aminolevulinic acid]
- signs of photosensitivity or damage of the mucosa ([1]; any of the animals): No signs of photosensitivity or damage of the mucosa was observed
- endoscopic severity index after PDT ([1]; mice that could be followed up by colonoscopy): improved significantly
- mice cured by PDT [1, 2]: 2 mice
- mice with improved clinical signs after PDT [1, 2]: one
- mice without clinical response ([1]; one of the 4 mice which developed signs of severe disease): 25%
- expression index IFN-γ after low dose PDT (IFN-γ; [3]): decreased significantly
- decrease of the expression of pro-inflammatory marker IFN-γ (IFN-γ; [4]): 73%
- expression index TNF-α after low dose PDT (TNF-α; [3]): decreased significantly
- decrease of the expression of pro-inflammatory marker TNF-α (TNF-α; [4]): 63%
